# Results as given in US20100119483A1, “PEPTIDE VIRAL ENTRY INHIBITORS” (Schering Corporation, priority 2004, published 2010).
# “And” between values parts separate entries of the source, which are not always exact repeats. Identical values can stand only once.
# System: HCV pseudoparticles
# Test: HCV pseudoparticle (HCVpp) entry assay in Huh7 hepatoma cells, luciferase readout
# Format: cell-based, hepatitis C virus
# Conditions: for % of control at ~30 uM: percentage of hepatitis C virus cellular entry at 30 μM peptide vs uninhibited control
# Protocol: HCV pseudotype particle generation. Single cycle HCV pseudoparticles are composed of a replication-defective HIV genome and HCV envelope proteins. These pseudoparticles were made by transfecting 293T cells with 5 ug of each pNL43E-R-luc (Chen et al., J. Virol. 68(2):654-60 (1994)) and plasmid expressing HCV envelope proteins pCMV/E1-2 with profection transfection kit from Promega (Madison, Wis.). The medium was refreshed 12-24 hours after transfection and supernatant was collected 48 hours after transfection. The supernatant from a transfection of only pNL43E-R-luc was used each time as a control for non specific entry events.
# Infection of hepatoma cell lines with HCV pseudotype particles and screen for inhibitory peptides. The hepatoma cells, Huh7, was seeded at 8000 cells in 90 ul medium in 96-well plate. In the case of the inhibitor screen, the inhibitor was incubated with cells for one hour at 37° C. and then 50 ul viral supernatant was added to the cells 24 hours after seeding. The viral stock was pre-tittered and diluted to yield approximately 10,000 to 20,000 RLU. The cells were incubated at 37° C. with 5% CO2 for additional 72 hours and were harvested for luciferase assay. Peptide stocks were prepared in 100% DMSO at 10 mg/ml and were first screened at 100 ug/ml and then a dose responsive curve was generated with 10 points 3-fold titration starting from 100 ug/ml.
# The peptide of SEQ ID NO: 77 was first serial diluted by the factor of 3 in 100% DMSO from 100 ug/ml and then transferred to the assay plates at 100-fold dilution. The peptide was first incubated with cells and HCVpp (A) or HIVpp (B), respectively, for 30 minutes at […] in this experiment. Then, the medium containing the peptide was removed from the cells and virus with peptide was added to the cells. Cells were incubated for 72 hours and then were harvested for luciferase assay. Two separate trials were performed.
# In addition, the peptide of SEQ ID NO: 77 was mutated at several positions and assayed in the HCV entry assay discussed above. […] The assays were performed essentially as described above.
# [1] = 0.1 nM of peptide (printed for three rows), two values per peptide and row
# [2] = 0.3 nM of peptide, two values per peptide
# [3] = 1 nM of peptide, two values per peptide
# [4] = 3 nM of peptide, two values per peptide
# [5] = 10 nM of peptide, two values per peptide
# [6] = 30 nM of peptide, two values per peptide
# [7] = 100 nM of peptide, two values per peptide
# [8] = 300 nM of peptide, two values per peptide
# [9] = 10000 nM of peptide, two values per peptide
# [10] = 30000 nM of peptide, two values per peptide
Substance,"% control (HCVpp entry), lysine scanning [1]","% control (HCVpp entry), lysine scanning [2]","% control (HCVpp entry), lysine scanning [3]","% control (HCVpp entry), lysine scanning [4]","% control (HCVpp entry), lysine scanning [5]","% control (HCVpp entry), lysine scanning [6]","% control (HCVpp entry), lysine scanning [7]","% control (HCVpp entry), lysine scanning [8]","% control (HCVpp entry), lysine scanning [9]","% control (HCVpp entry), lysine scanning [10]","% control (HCVpp entry), alanine scanning [1]","% control (HCVpp entry), alanine scanning [2]","% control (HCVpp entry), alanine scanning [3]","% control (HCVpp entry), alanine scanning [4]","% control (HCVpp entry), alanine scanning [5]","% control (HCVpp entry), alanine scanning [6]","% control (HCVpp entry), alanine scanning [7]","% control (HCVpp entry), alanine scanning [8]","% control (HCVpp entry), alanine scanning [9]",% of control at ~30 uM [%],further results
A-I-K-W-E-Y-K-L-L-L-F-L-L (AIKWEYKLLLFLL; HCV peptide) [SEQ ID NO: 131],97 % control and 80 % control and 94 % control and 96 % control and 113 % control,105 % control and 81 % control,85 % control and 68 % control,71 % control and 85 % control,74 % control and 66 % control,71 % control and 68 % control,49 % control and 62 % control,29 % control and 42 % control,16 % control and 14 % control,30 % control and 44 % control,–,–,–,–,–,–,–,–,–,–,–
A-I-K-W-E-Y-P-L-L-L-F-L-L (AIKWEYPLLLFLL; HCV peptide) [SEQ ID NO: 121],–,–,–,–,–,–,–,–,–,–,–,–,–,–,–,–,–,–,–,–,"% control (HCVpp entry), proline scanning [1]: 77 % control and 95 % control and 91 % control and 115 % control and 104 % control and 90 % control; % control (HCVpp entry), proline scanning [2]: 68 % control and 84 % control; % control (HCVpp entry), proline scanning [3]: 76 % control and 110 % control; % control (HCVpp entry), proline scanning [4]: 85 % control and 87 % control; % control (HCVpp entry), proline scanning [5]: 75 % control and 66 % control; % control (HCVpp entry), proline scanning [6]: 70 % control and 82 % control; % control (HCVpp entry), proline scanning [7]: 44 % control and 63 % control; % control (HCVpp entry), proline scanning [8]: 42 % control and 30 % control; % control (HCVpp entry), proline scanning [10]: 32 % control and 41 % control"
"A-I-K-W-E-Y-V-A-L-L-F-L-L (AIKWEYVALLFLL; HCV peptide) [SEQ ID NO: 93, Ala-scan]",–,–,–,–,–,–,–,–,–,–,91 % control and 83 % control and 80 % control and 104 % control and 134 % control and 81 % control,86 % control and 105 % control,85 % control and 87 % control,78 % control and 87 % control,71 % control and 67 % control,58 % control and 51 % control,47 % control and 42 % control,32 % control and 27 % control,41 % control and 32 % control,13,"% control (HCVpp entry), alanine scanning [10]: 32 % control"
A-I-K-W-E-Y-V-K-L-L-F-L-L (AIKWEYVKLLFLL; HCV peptide) [SEQ ID NO: 132],73 % control and 89 % control and 95 % control and 92 % control and 117 % control and 96 % control,100 % control and 71 % control,67 % control and 79 % control,78 % control and 75 % control,54 % control and 56 % control,71 % control and 89 % control,59 % control and 62 % control,46 % control and 44 % control,49 % control and 50 % control,42 % control and 41 % control,–,–,–,–,–,–,–,–,–,–,–
"A-I-K-W-E-Y-V-L-A-L-F-L-L (AIKWEYVLALFLL; HCV peptide) [SEQ ID NO: 94, Ala-scan]",–,–,–,–,–,–,–,–,–,–,99 % control and 96 % control and 79 % control and 101 % control and 115 % control and 105 % control,104 % control and 92 % control,81 % control and 82 % control,58 % control and 89 % control,79 % control and 86 % control,58 % control and 48 % control,45 % control and 41 % control,42 % control and 33 % control,36 % control and 34 % control,17,"% control (HCVpp entry), alanine scanning [10]: 14 % control and 28 % control"
A-I-K-W-E-Y-V-L-K-L-F-L-L (AIKWEYVLKLFLL; HCV peptide) [SEQ ID NO: 133],78 % control and 85 % control and 96 % control and 101 % control and 87 % control and 116 % control,108 % control and 78 % control,96 % control and 82 % control,95 % control and 79 % control,77 % control and 113 % control,80 % control and 68 % control,75 % control and 60 % control,41 % control and 56 % control,24 % control and 39 % control,–,–,–,–,–,–,–,–,–,–,–,–
A-I-K-W-E-Y-V-L-L-K-F-L-L (AIKWEYVLLKFLL; HCV peptide) [SEQ ID NO: 134],80 % control and 96 % control and 108 % control and 75 % control and 138 % control and 79 % control,104 % control and 85 % control,128 % control and 81 % control,94 % control and 92 % control,105 % control and 77 % control,101 % control and 76 % control,89 % control and 87 % control,75 % control and 68 % control,60 % control and 47 % control,56 % control and 45 % control,–,–,–,–,–,–,–,–,–,–,–
"A-I-K-W-E-Y-V-L-L-L-A-L-L (AIKWEYVLLLALL; HCV peptide) [SEQ ID NO: 95, Ala-scan]",–,–,–,–,–,–,–,–,–,–,82 % control and 89 % control and 76 % control and 114 % control and 97 % control and 113 % control,70 % control and 62 % control,72 % control and 91 % control,52 % control and 85 % control,47 % control and 64 % control,–,53 % control and 35 % control,13 % control and 18 % control,15 % control and 25 % control,8,–
"A-I-K-W-E-Y-V-L-L-L-F-A-L (AIKWEYVLLLFAL; HCV peptide) [SEQ ID NO: 96, Ala-scan]",–,–,–,–,–,–,–,–,–,–,95 % control and 86 % control and 100 % control and 96 % control and 72 % control and 132 % control,91 % control and 98 % control,124 % control and 78 % control,76 % control and 85 % control,58 % control and 73 % control,63 % control and 67 % control,24 % control and 41 % control,36 % control and 26 % control,33 % control and 20 % control,24,"% control (HCVpp entry), alanine scanning [10]: 31 % control"
